Results as given in PubChem BioAssay (NCI).
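Cultured in 96-well plates, cells were exposed to test compound for 48 hours across five concentrations. TGI marks complete inhibition of growth.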

Assays:
Experiment in all cases: NCI anticancer screen, dose series, 48 h
786-0 renal = test system: 786-0 renal
A498 renal = test system: A498 renal
A549 NSCLC = test system: A549 NSCLC
ACHN renal = test system: ACHN renal
CAKI-1 renal = test system: CAKI-1 renal
CCRF-CEM leukemia = test system: CCRF-CEM leukemia
COLO 205 colon = test system: COLO 205 colon
DLD-1 colon = test system: DLD-1 colon
DMS 114 small cell lung = test system: DMS 114 small cell lung
DMS 273 small cell lung = test system: DMS 273 small cell lung
EKVX NSCLC = test system: EKVX NSCLC
HCC-2998 colon = test system: HCC-2998 colon
HCT-116 colon = test system: HCT-116 colon
HCT-15 colon = test system: HCT-15 colon
HL-60(TB) leukemia = test system: HL-60(TB) leukemia
HOP-18 NSCLC = test system: HOP-18 NSCLC
HOP-62 NSCLC = test system: HOP-62 NSCLC
HOP-92 NSCLC = test system: HOP-92 NSCLC
HT29 colon = test system: HT29 colon
IGROV1 ovarian = test system: IGROV1 ovarian
K-562 leukemia = test system: K-562 leukemia
KM12 colon = test system: KM12 colon
KM20L2 colon = test system: KM20L2 colon
LOX IMVI melanoma = test system: LOX IMVI melanoma
LXFL 529 NSCLC = test system: LXFL 529 NSCLC
M14 melanoma = test system: M14 melanoma
MALME-3M melanoma = test system: MALME-3M melanoma
MOLT-4 leukemia = test system: MOLT-4 leukemia
NCI-H226 lung = test system: NCI-H226 lung
NCI-H23 lung = test system: NCI-H23 lung
NCI-H460 lung = test system: NCI-H460 lung
NCI-H522 lung = test system: NCI-H522 lung
OVCAR-3 ovarian = test system: OVCAR-3 ovarian
OVCAR-4 ovarian = test system: OVCAR-4 ovarian
OVCAR-5 ovarian = test system: OVCAR-5 ovarian
OVCAR-8 ovarian = test system: OVCAR-8 ovarian
RPMI-8226 leukemia = test system: RPMI-8226 leukemia
RXF 393 renal = test system: RXF 393 renal
RXF-631 renal = test system: RXF-631 renal
SF-268 CNS = test system: SF-268 CNS
SF-295 CNS = test system: SF-295 CNS
SF-539 CNS = test system: SF-539 CNS
SK-MEL-2 melanoma = test system: SK-MEL-2 melanoma
SK-MEL-28 melanoma = test system: SK-MEL-28 melanoma
SK-MEL-5 melanoma = test system: SK-MEL-5 melanoma
SK-OV-3 ovarian = test system: SK-OV-3 ovarian
SN12C renal = test system: SN12C renal
SNB-19 CNS = test system: SNB-19 CNS
SNB-75 CNS = test system: SNB-75 CNS
SNB-78 CNS = test system: SNB-78 CNS
SR leukemia = test system: SR leukemia
SW-620 colon = test system: SW-620 colon
TK-10 renal = test system: TK-10 renal
U251 CNS = test system: U251 CNS
UACC-257 melanoma = test system: UACC-257 melanoma
UACC-62 melanoma = test system: UACC-62 melanoma
UO-31 renal = test system: UO-31 renal

SMILES: COc1ccc(C(=C[N+](=O)[O-])c2ccc(OC)cc2)cc1
- TGI (786-0 renal): > 89 µM
- TGI (A498 renal): 41.3 µM
- TGI (A549 NSCLC): > 100 µM
- TGI (ACHN renal): > 100 µM
- TGI (CAKI-1 renal): > 100 µM
- TGI (CCRF-CEM leukemia): > 92.7 µM
- TGI (COLO 205 colon): 15.5 µM
- TGI (DLD-1 colon): > 84.3 µM
- TGI (DMS 114 small cell lung): 23.7 µM
- TGI (DMS 273 small cell lung): 22.9 µM
- TGI (EKVX NSCLC): > 100 µM
- TGI (HCC-2998 colon): 31.5 µM
- TGI (HCT-116 colon): 27.8 µM
- TGI (HCT-15 colon): > 100 µM
- TGI (HL-60(TB) leukemia): > 34.7 µM
- TGI (HOP-18 NSCLC): > 100 µM
- TGI (HOP-62 NSCLC): 50.6 µM
- TGI (HOP-92 NSCLC): > 100 µM
- TGI (HT29 colon): 20.1 µM
- TGI (IGROV1 ovarian): > 63.3 µM
- TGI (K-562 leukemia): > 100 µM
- TGI (KM12 colon): > 46.5 µM
- TGI (KM20L2 colon): 26.9 µM
- TGI (LOX IMVI melanoma): 46.4 µM
- TGI (LXFL 529 NSCLC): > 100 µM
- TGI (M14 melanoma): 41.8 µM
- TGI (MALME-3M melanoma): > 100 µM
- TGI (MOLT-4 leukemia): 29.3 µM
- TGI (NCI-H226 lung): 52.4 µM
- TGI (NCI-H23 lung): > 57.1 µM
- TGI (NCI-H460 lung): 54.7 µM
- TGI (NCI-H522 lung): 32.7 µM
- TGI (OVCAR-3 ovarian): 46.1 µM
- TGI (OVCAR-4 ovarian): > 100 µM
- TGI (OVCAR-5 ovarian): 99.5 µM
- TGI (OVCAR-8 ovarian): 37.9 µM
- TGI (RPMI-8226 leukemia): 26.3 µM
- TGI (RXF 393 renal): 49.1 µM
- TGI (RXF-631 renal): > 100 µM
- TGI (SF-268 CNS): > 100 µM
- TGI (SF-295 CNS): 25.1 µM
- TGI (SF-539 CNS): 29.3 µM
- TGI (SK-MEL-2 melanoma): 33.3 µM
- TGI (SK-MEL-28 melanoma): > 100 µM
- TGI (SK-MEL-5 melanoma): > 100 µM
- TGI (SK-OV-3 ovarian): 36.2 µM
- TGI (SN12C renal): > 100 µM
- TGI (SNB-19 CNS): > 94.4 µM
- TGI (SNB-75 CNS): 30.3 µM
- TGI (SNB-78 CNS): > 84.5 µM
- TGI (SR leukemia): 45.1 µM
- TGI (SW-620 colon): > 73.3 µM
- TGI (TK-10 renal): 99.3 µM
- TGI (U251 CNS): 17.9 µM
- TGI (UACC-257 melanoma): > 92.6 µM
- TGI (UACC-62 melanoma): > 100 µM
- TGI (UO-31 renal): 88.9 µM
